Source: patent US4994457A, “Antiinflammatory compositions and methods” (Pfizer Inc., priority 1987, dated 1991)
Structures can show the parent of a compound that is named as a salt.

Columns and labels:
[1] = test system: Piroxicam-Induced Gastric Lesions in Rats; experiment: Protective effect of disodium 5'-guanylate on piroxicam-induced gastric lesions in rats; format: in vivo, CD strain (Sprague-Dawley), male; details: for Lesions/Rat (X +/- SE): mean (SE)
Method: (§1) Adult male "specific pathogen free" rats weighing 140-160 grams of the CD strain (Sprague-Dawley) were obtained from Charles River Breeding Laboratories (Kingston, N.Y.). The animals were acclimated for approximately one week and tested when they reached a body weight of 200-225 grams. The rats were fasted for 16 hours and randomized into groups consisting of 10 animals which were normalized with regard to their average body weight.
(§2) Gastric ulcers were induced in the animals by orally dosing them with a single 120 mg/kg dose of piroxicam (ethanolamine salt) in 2 ml. of aqueous 0.1% methylcellulose (pH=6.8). Those animals receiving disodium 5'-guanylate separately received the second drug in an additional 2 ml. of the same medium at about the same time. Six and one-half hours later, the animals were sacrificed by cervical dislocation and autopsied. The stomachs were surgically removed, dissected along the greater curvature and rinsed with cold water. The stomachs were individually scored for both linear and punctate lesions. The total number of lesions was used for scoring purposes. The data obtained from each group of rats was analyzed after calculation of the mean number +/- the standard error of total gastric lesions. The values obtained were also compared to the controls which received only piroxicam by the two-tailed Student's T-Test for non-paired data.

[2] = test system: Piroxicam Induced Gastric Lesions in Rats; experiment: Protective effect of N-acetyl-L-methionine on piroxicam induced gastric lesions in rats; format: in vivo, CD strain (Sprague-Dawley), male; details: for Lesions/Rat (X +/- SE): mean (SE)
Method: as §1, §2
By the procedure of the preceding Example, the protective effect of the N-acetyl-L-methionine on piroxicam induced gastric lesions in rats was determined.

gastric ulcers in rats = details: Tanaka et al. 1982, Kunimi et al. 1982; cited from earlier work
[3] = test system: gastrointestinal ulcers induced by the subcutaneous injection of indomethacin; details: Urishidani et al. 1977; cited from earlier work
[4] = test system: gastric mucosal damage of aspirin solutions in rats; details: Lim et al. 1979; cited from earlier work
[5] = stated as background for single daily dosage; cited from earlier work

Nc1nc2c(ncn2[C@@H]2O[C@H](COP(=O)(O)O)[C@@H](O)[C@H]2O)c(=O)[nH]1 [Disodium 5'-Guanylate, guanosine 5'-monophosphate]
reduction of piroxicam-induced gastric lesions ([1]; healthy fasted rat, oral): significantly reduces piroxicam-induced gastric lesions
Lesions/Rat (X +/- SE) ([1]; oral 1.0 mg/kg, 20 rats, with 120 mg/kg piroxicam ethanolamine salt): 8.1 (0.7) Lesions/Rat
Lesions/Rat (X +/- SE) ([1]; oral 3.3 mg/kg, 20 rats, with 120 mg/kg piroxicam ethanolamine salt): 5.8 (0.5) Lesions/Rat
Lesions/Rat (X +/- SE) ([1]; oral 10.0 mg/kg, 30 rats, with 120 mg/kg piroxicam ethanolamine salt): 4.6 (0.8) Lesions/Rat
Lesions/Rat (X +/- SE) ([1]; oral 33.0 mg/kg, 40 rats, with 120 mg/kg piroxicam ethanolamine salt): 3.9 (0.6) Lesions/Rat

CN1C(C(=O)Nc2ccccn2)=C(O)c2ccccc2S1(=O)=O [Ethanolamine Salt of Piroxicam, 4-hydroxy-2-methyl-N-2-pyridinyl-2H-1,2-benzothiazine-3-carboxamide 1,1-dioxide, reference compound]
Lesions/Rat (X +/- SE) ([1]; control: 120 mg/kg oral ethanolamine salt of piroxicam alone, 40 rats, 6.5 h): 8.3 (0.9) Lesions/Rat
Lesions/Rat (X +/- SE) ([2]; control: 120 mg/kg oral ethanolamine salt of piroxicam alone, 50 rats): 8.0 (0.8) Lesions/Rat

NCCC(=O)N[C@@H](Cc1cnc[nH]1)C(=O)O [L-carnosine]
prevention of the exacerbation of gastric ulcers by certain antiinflammatory agents (gastric ulcers in rats): not

CSCC[C@H](NC(C)=O)C(=O)O [N-Acetyl-L-methionine, N-acetyl-L-methionine]
ED50 ([2]; Rattus norvegicus, 6.5 h, oral, 120 mg/kg piroxicam ethanolamine salt, read-out: ED50 (dose of the N-acetylmethionine required to inhibit 50% of control gastric lesions)): 100 to 333 mg/kg
Lesions/Rat (X +/- SE) ([2]; oral 33 mg/kg, 50 rats, with 120 mg/kg piroxicam ethanolamine salt): 6.9 (0.8) Lesions/Rat
Lesions/Rat (X +/- SE) ([2]; oral 100 mg/kg, 40 rats, with 120 mg/kg piroxicam ethanolamine salt): 3.9 (0.8) Lesions/Rat
Lesions/Rat (X +/- SE) ([2]; oral 333 mg/kg, 20 rats, with 120 mg/kg piroxicam ethanolamine salt): 3.5 (0.9) Lesions/Rat

CC(=O)NCCC(=O)N[C@@H](Cc1c[nH]cn1)C(=O)O [N-acetyl-L-carnosine, N-(N-acetyl-beta-alanyl)-L-histidine]
prevention of the exacerbation of gastric ulcers by certain antiinflammatory agents (gastric ulcers in rats): not

CC(=O)NCCC(=O)N[C@@H](Cc1c[nH]cn1)C(=O)O [aluminum salts of N-acetyl-L-carnosine, N-(N-acetyl-beta-alanyl)-L-histidine]
prevention of the exacerbation of gastric ulcers by certain antiinflammatory agents (gastric ulcers in rats): prevent the exacerbation of gastric ulcers

CC(=O)N[C@@H](CCC(N)=O)C(=O)O [aluminum salts of N-acetyl-L-glutamine, N-acetyl-L-glutamine]
prevention of the exacerbation of gastric ulcers by certain antiinflammatory agents (gastric ulcers in rats): prevent the exacerbation of gastric ulcers

CSCC[C@H](N)C(=O)O [methionine]
inhibition of gastrointestinal ulcers [3]: inhibit gastrointestinal ulcers
effect on gastric mucosal damage of aspirin solutions [4]: beneficial effect

CN1C(C(=O)Nc2ccccn2)=C(O)c2ccccc2S1(=O)=O [piroxicam, 4-hydroxy-2-methyl-N-2-pyridinyl-2H-1,2-benzothiazine-3-carboxamide 1,1-dioxide]
in vivo half-life [5]: long
